# US20040171086A1, “Selective modulation of TLR-mediated biological activity” (3M Innovative Properties Company, priority 2003, published 2004)
# Biological target: T1, TLR6 (Homo sapiens, UniProt Q9Y2C9)
# T1 construct: expressed in transfected cells; host or cells: Namalwa (ATCC CRL-1432), pCI-TLR6 vector, G418 selected
# T1 sequence (Q9Y2C9 32-796): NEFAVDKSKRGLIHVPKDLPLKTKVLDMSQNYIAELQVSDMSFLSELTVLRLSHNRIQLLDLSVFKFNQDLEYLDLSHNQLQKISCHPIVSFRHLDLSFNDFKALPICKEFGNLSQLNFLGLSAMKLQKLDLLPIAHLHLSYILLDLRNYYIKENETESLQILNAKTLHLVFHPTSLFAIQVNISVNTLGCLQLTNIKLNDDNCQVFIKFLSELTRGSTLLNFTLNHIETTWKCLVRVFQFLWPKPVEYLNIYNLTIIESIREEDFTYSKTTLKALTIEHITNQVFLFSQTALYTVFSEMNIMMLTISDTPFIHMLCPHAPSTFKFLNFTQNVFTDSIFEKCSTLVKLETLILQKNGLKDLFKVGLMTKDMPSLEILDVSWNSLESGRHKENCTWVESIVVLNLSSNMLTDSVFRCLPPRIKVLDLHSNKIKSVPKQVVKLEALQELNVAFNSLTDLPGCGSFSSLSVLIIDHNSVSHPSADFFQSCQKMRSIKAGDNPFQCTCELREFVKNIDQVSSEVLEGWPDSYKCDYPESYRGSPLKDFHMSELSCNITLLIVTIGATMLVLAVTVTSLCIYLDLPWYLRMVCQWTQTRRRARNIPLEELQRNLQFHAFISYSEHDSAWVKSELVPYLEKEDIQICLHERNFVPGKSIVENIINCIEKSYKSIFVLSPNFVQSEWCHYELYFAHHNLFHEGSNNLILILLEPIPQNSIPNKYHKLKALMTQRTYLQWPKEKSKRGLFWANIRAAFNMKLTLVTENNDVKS
# Assay: IFN-α1-luciferase reporter assay in genetically modified Namalwa cells, TLR6
# Type: cell-based
# Conditions: 10 μM IRM, 18 hours
# Description: Results are shown in Table 6 and are expressed as fold induction of IFN-α1 —induced luciferase signal, again with respect to a vehicle control.
# The assay identified TLR6-selective compounds (i.e., compounds that modulate TLR6-mediated activity, but not TLR7-mediated activity), TLR7-selective compounds (compounds that modulate TLR7-mediated activity, but not TLR6-mediated activity), and compounds that modulate cellular activity through both TLR6 and TLR7.
# Unless otherwise indicated, all incubations were performed at 37° C. with 5% CO2 at 98% humidity.
# Culture medium was prepared from complete RPMI 1640 medium (BioSource International, Inc., Camarillo, Calif.). Fetal bovine serum (Atlas Biologicals, Inc., Ft. Collins, Colo.) was added to a final concentration of 7.5% (vol/vol); L-glutamine (BioSource International, Inc.) was added to 5 mM; and sodium pyruvate (BioSource International, Inc.) was added to 1 mM.
# Namalwa cells were grown by incubation in culture medium overnight. Cells were harvested by centrifugation in a tabletop centrifuge (1200 RPM for 5 minutes), and then resuspended in phosphate buffered sucrose to a concentration of 1.3×10^7 cells/mL.
# For each transfection, a 750 μL aliquot of the cell suspension was placed in an electroporation cuvette with 4 mm gaps. 10 μg of the pIFN-α1-luc vector and 10 μg of the pCI-TLR6 vector were added to the electroporation cuvette. The cell and vector mixtures were incubated at room temperature for 5 minutes. The cells were electroporated using a BioRad Gene Pulser (BioRad Laboratories, Hercules, Calif.) set to at 500 μF capacitance and […], then incubated at room temperature for 5 minutes.
# The electroporated cells were suspended in 10 mLs of culture medium and incubated overnight. Dead cells and debris were removed after 24 hours using a MACS Dead Cell Removal kit (Miltenyi Biotec, Auburn, Calif.). Cells were resuspended in 10 mL of culture medium and incubated for an additional 24 hours.
# Transfected cells were selected by adding G418 (Promega Corp., Madison, Wis.) to a final concentration of 1 mg/mL and incubating the cells for seven days.
# The selected transfected cells were counted and resuspended to a concentration of 1×10^6 cell per mL in culture medium. 100 μl aliquots of cells were placed in the wells of a white-walled, white-bottomed 96-well plate (Corning, Inc., Corning, N.Y.). 1.0 μL of an IRM compound from Table 1 (prepared at 1 mM in 100% DMSO) was added to some cell aliquots so that the final concentration of IRM compound was 10 μM. As a positive control, some cell aliquots were incubated with Sendai virus instead of IRM compound. As a negative control, some cell aliquots were incubated with DMSO without IRM compound. In all cases, the cells were incubated for 18 hours.
# The plates were equilibrated to room temperature before one volume of reconstituted LucLight Plus (Packard Instruments, Meriden, Conn.) was added to each aliquot of cells. Each well of the plate was read on an LJL Analyst (LJL Biosystems, Inc., Sunnyvale, Calif.) set with a 5 minute dark adapt. Results are shown in Table 6 and are expressed as fold increase of the IFN-αl—induced luciferase signal compared to a DMSO control.
row,TLR6: fold increase of the IFN-α1-induced luciferase signal compared to a DMSO control [fold increase],Compound
1,12.49,"CCc1nc2c(N)nc3ccccc3c2n1CCCCNC(=O)C1CCCCC1 [IRM8, N-[4-(4-amino-2-ethyl-1H-imidazo[4,5-c]quinolin-1-yl)butyl]cyclohexanecarboxamide]"
2,2.73,"CCc1nc2c(N)nc3ccccc3c2n1CCCCSc1cc(Cl)cc(Cl)c1 [IRM14, 1-{4-[(3,5-dichlorophenyl)thio]butyl}-2-ethyl-1H-imidazo[4,5-c]quinolin-4-amine]"
3,17.98,"CCC(C)NC(=S)NCCn1c(CCOC)nc2c(N)nc3ccccc3c21 (stereo not drawn) [IRM21, N-{2-[4-amino-2-(2-methoxyethyl)-1H-imidazo[4,5-c]quinolin-1-yl]ethyl}-N′-sec-butylthiourea]"

# Second part, the compound before the results:
row,Compound,TLR6: fold increase of the IFN-α1-induced luciferase signal compared to a DMSO control [fold increase]
1,"CCOCc1nc2c(N)nc3ccccc3c2n1CC(C)C [IRM1, 2-(ethoxymethyl)-1-(2-methylpropyl)-1H-imidazo[4,5-c]quinolin-4-amine]",7.93
2,"COCCc1nc2c(N)nc3ccccc3c2n1CCOCCN(C)C(=O)C1CCCCC1 [IRM3, N-(2-{2-[4-amino-2-(2-methoxyethyl)-1H-imidazo[4,5-c]quinolin-1-yl]ethoxy}ethyl)-N-methylcyclohexanecarboxamide]",10.24
3,"CCCCc1nc2c(N)nc3ccccc3c2n1CCCCCS(C)(=O)=O [IRM6, 2-butyl-1-[5-(methylsulfonyl)pentyl]-1H-imidazo[4,5-c]quinolin-4-amine]",13.61
4,"CCOCc1nc2c(N)nc3c(c2n1CC(C)(C)O)CCCC3 [IRM16, 4-amino-2-ethoxymethyl-α,α-dimethyl-6,7,8,9-tetrahydro-1H-imidazo[4,5-c]quinoline-1-ethanol]",12.95
5,"COCCc1nc2c(N)nc3ccccc3c2n1CCOCCNC(=O)Nc1ccccc1 [IRM19, N-(2-{2-[4-amino-2-(2-methoxyethyl)-1H-imidazo[4,5-c]quinolin-1-yl)ethoxy}ethyl)-N′-phenylurea]",12.60
6,"COCCc1nc2c(N)nc3c(c2n1CC(C)(C)NS(C)(=O)=O)CCCC3 [IRM22, N-{2-[4-amino-2-(2-methoxyethyl)-6,7,8,9-tetrahydro-1H-imidazo[4,5-c]quinolin-1-yl]-1,1-dimethylethyl}methanesulfonamide]",16.25
